In patent US20080113938A1, “ACCELERATOR FOR MINERAL ABSORPTION AND USE THEREOF” (KABUSHIKI KAISHA HAYASHIBARA SEIBUTSU KAGAKU KENKYUJO, priority 2003, published 2008):

Test: Remaining cyclic tetrasaccharide in contents of alimentary canal and excrement of rats
Assay type: in vivo, Wister rats
Conditions: for Remaining percentage of cyclic tetrasaccharide in content of appendix / Remaining percentage of cyclic tetrasaccharide in content of intestinum ileum / Remaining percentage of cyclic tetrasaccharide in excrement: relative to chromium marker
From the text: Forty of Wister rats weighing 110 to 120 g (five-weeks aged male, commercialized by Charles River Japan Inc., Yokohama, Japan) were bred with a feed containing ingredients (%) shown in Table 1 for one week in order to be familiarized. The familiarized rats were randomly divided into four groups with ten rats each. Each group was experimentally bred for eight weeks with either a feed without cyclic tetrasaccharide shown in Table 1 (hereinafter, it is called as “basic feed”), or another feed of basic feed supplemented with 1%, 2% or 5% on a dry solid basis, of cyclic tetrasaccharide in a crystalline anhydrous powder form with a purity of 99.5%, prepared in the following Example A-3. These basic feed and three kinds of feeds with cyclic tetrasaccharide were prepared to contain 44.75% of the total amount of cyclic tetrasaccharide and corn starch in each feed. From one week before the end of the breeding test, in order to determine the metabolism of calcium, magnesium, iron, sodium, potassium and phosphorus (hereinafter, may be called “minerals” in all), rats in the all groups were fed with the four types of feeds supplemented with 0.5% of chromium oxide as a non-absorbed marker for the minerals. The rats were bred at 25° C. in a manner of freely allowing to take feeds and water under a condition of 12 hours regular interval between of light and shade. After completion of experimental breeding, all rats were individually weighed to calculate the average of weight and further calculate the rate of increased weight for each group.
Two days before the end of the breeding test, rats were placed into a gauge for measuring metabolism to collect their excrement in two days. The resulting excrement was subjected to the measurement of the contents of cyclic tetrasaccharide, each mineral, and chromium. After the breeding test, the rats were anatomized in an anesthetized condition to take out their alimentary canals including jejunum, intestinum ileum, appendix and colon/rectum. After the resulting alimentary canals were weighed, their contents were also weighed and subjected to the measurement of the amount of cyclic tetrasaccharide, minerals and chromium. The rats, which had been taken out their alimentary canals, were dislocated at their cervical vertebrae and taken out their femurs from right legs. The resulting femurs were subjected to the measurement of the amount of ashes, calcium, magnesium and phosphorus. The following(s) explain the methods of quantitative analysis of cyclic tetrasaccharide and the methods of measurement of minerals and chromium.
One gram of a feed was admixed with 5 ml of 80% ethanol heated at 85° C. under reflux for 15 minutes to extract saccharides. The resulting saccharide sample was subjected to TMS derivatization in a usual manner. Three microliters of the sample was applied to a gas chromatography (“GC-16™”, commercialized by Shimazu Corporation, Kyoto, Japan) equipped with OV-17 packed column (“2% Silicone, OV-17 Chromosorb W/AW DMSC 80-100 mesh, 3 mmID×2 m, SUS”, produced by GL Science Corporation). The inner column temperature was kept at 160° C. for two minutes, and heated up to 320° C. at a rate of 7.5° C./min. The amount of cyclic tetrasaccharide was quantified by using nitrogen gas as a carrier (35 ml/min). While, in order to quantify the amounts of the contents of jejunum, intestinum ileum, appendix, colon/rectum and excrement, 0.05 g of each sample was weighed in a micro tube for gas chromatography and dried in a desiccator with phosphorus pentoxide. The resulting samples were subjected to TMS derivatization in a usual manner and quantified by gas chromatography.
The remaining percentages (%) were calculated using the following numerical formula, based on the rate of the amount of cyclic tetrasaccharide to chromium in each feed and the rate of those in the contents or excrement in consideration of that chromium is never absorbed by living bodies; […]

[1] = 1% cyclic tetrasaccharide in feed
[2] = 2% cyclic tetrasaccharide in feed
[3] = 5% cyclic tetrasaccharide in feed
[4] = feed supplemented with 1%, 2% or 5% of cyclic tetrasaccharide

OC[C@H]1O[C@@H]2OC[C@H]3O[C@H](O[C@@H]4[C@@H](O)[C@@H](OC[C@H]5O[C@H](O[C@H]([C@H]2O)[C@@H]1O)[C@H](O)[C@@H](O)[C@@H]5O)O[C@H](CO)[C@H]4O)[C@H](O)[C@@H](O)[C@@H]3O [cyclic tetrasaccharide, cyclo{>6)-α-D-glucopyranosyl-(1>3)-α-D-glucopyranosyl-(1>6)-α-D-glucopyranosyl-(1>3)-α-D-glucopyranosyl-(1>}]
Amount of cyclic tetrasaccharide in content of appendix [1]: 0.0 mg/g | Amount of cyclic tetrasaccharide in content of intestinum ileum [1]: 60.5 mg/g | Amount of cyclic tetrasaccharide in excrement [1]: 0.0 mg/g | Remaining percentage of cyclic tetrasaccharide in content of appendix [1]: 0% | Remaining percentage of cyclic tetrasaccharide in content of intestinum ileum [1]: 95% | Remaining percentage of cyclic tetrasaccharide in excrement [1]: 0% | Amount of cyclic tetrasaccharide in content of appendix [2]: 0.0 mg/g | Amount of cyclic tetrasaccharide in content of intestinum ileum [2]: 184.1 mg/g | Amount of cyclic tetrasaccharide in excrement [2]: 0.0 mg/g | Remaining percentage of cyclic tetrasaccharide in content of appendix [2]: 0% | Remaining percentage of cyclic tetrasaccharide in content of intestinum ileum [2]: 95% | Remaining percentage of cyclic tetrasaccharide in excrement [2]: 0% | Amount of cyclic tetrasaccharide in content of appendix [3]: 0.0 mg/g | Amount of cyclic tetrasaccharide in content of intestinum ileum [3]: 298.0 mg/g | Amount of cyclic tetrasaccharide in excrement [3]: 0.0 mg/g | Remaining percentage of cyclic tetrasaccharide in content of appendix [3]: 0% | Remaining percentage of cyclic tetrasaccharide in content of intestinum ileum [3]: 90% | Remaining percentage of cyclic tetrasaccharide in excrement [3]: 0% | cyclic tetrasaccharide in the appendix and excrement [4]: not detected at all | cyclic tetrasaccharide remained up to intestinum ileum without digestion [4]: at least 90%
